Measured values from patent US12606543B2, “Indole derivatives as serotonergic agents useful for the treatment of disorders related thereto” (priority 2023, dated 2026).
Like-named read-outs stand apart in the source and are kept apart here.

How the values were obtained:
human 5-HT2B receptor [1] = target: T1, human 5-HT2B receptor (Homo sapiens, UniProt P41595); experiment: Human 5-HT2B radioligand binding assay ([3H]-LSD)
Protocol: The objective of this study was to evaluate the binding properties of test compounds on 5-HT2B.
1) The assay buffer was prepared following Table 29 below.
2) Eight doses of reference and test compounds starting from 10 mM stock solution as requested by 5-fold serial dilutions with 100% (v/v) DMSO.
3) UniFilter-96 GF/B plate was pretreated: • a. 50 μL/well of 0.5% (v/v) PEI to UniFilter-96 GF/B plates. The plates were sealed and incubated at 4° C. for 3 hrs. • b. After incubation, the plates were washed 3 times with ice-cold wash buffer (50 mM Tris, pH 7.4).
4) Assay plate preparation: • a. Cell membrane was diluted with assay buffer and 330 μL/well added to 96 round deep well plates to reach a concentration of 1 unit/well. • b. Eight concentrations of reference or test compounds were prepared and 110 μL/well added to 96 round deep well plates. • c. [3H]-LSD was diluted with assay buffer to 5 nM (5× final concentration) and 110 μL/well was added to 96 round deep well plates.
5) The plate was centrifuged at 1000 rpm for 30 secs and then agitated at 600 rpm at room temperature for 5 mins.
6) The plates were sealed and incubated at 37° C. for 90 mins.
7) The incubation was stopped by vacuum filtration onto GF/B filter plates followed by washing four times with ice-cold wash buffer (50 mM Tris, pH7.4).
9) The filter plates were sealed and 40 μL/well of scintillation cocktail was added.
10) The plate was read using a Microbeta2 microplate counter.
(§1) For reference and test compounds, the results are expressed as % Inhibition, using the normalization equation: N=100−100×(U−C2)/(C1−C2), where U is the unknown value, C1 is the average of high controls, and C2 is the average of low controls. The IC50 is determined by fitting percentage of inhibition as a function of compound concentrations with Hill equation.
The objective of this study is to evaluate the binding properties of test compounds on 5-HT2B.
1) The assay buffer was prepared following Table 59 below.
3) UniFilter-96 GF/B plate was pretreated: • a. 50 μL/well of 0.5% (v/v) PEI to UniFilter-96 GF/B plates. The plates were sealed and incubate at 4° C. for 3 hrs. • b. After incubation, the plates were washed three times with ice-cold wash buffer (50 mM Tris, pH7.4).
5) The plate was centrifuged at 1000 rpm for 30 secs and then agitated at 600 rpm at room temperature for 5 min.
8) The plates were dried at 37° C. for 45 mins.
10) The plate was read using a Microbeta^2 microplate counter.
as §1, with “average of the high controls,” for “average of high controls,”, “average of the low controls.” for “average of low controls.”

human 5-HT2C receptor = target: T2, human 5-HT2C receptor (Homo sapiens, UniProt P28335); experiment: cell-based; settings: calcium mobilization FLIPR; for Emax (% of serotonin): U2OS cells, relative to maximum response of serotonin; for EC50: stably transfected U2OS cells
T2 construct: expressed in transfected cells; host or cells: U2OS
T2 sequence (P28335 33-458): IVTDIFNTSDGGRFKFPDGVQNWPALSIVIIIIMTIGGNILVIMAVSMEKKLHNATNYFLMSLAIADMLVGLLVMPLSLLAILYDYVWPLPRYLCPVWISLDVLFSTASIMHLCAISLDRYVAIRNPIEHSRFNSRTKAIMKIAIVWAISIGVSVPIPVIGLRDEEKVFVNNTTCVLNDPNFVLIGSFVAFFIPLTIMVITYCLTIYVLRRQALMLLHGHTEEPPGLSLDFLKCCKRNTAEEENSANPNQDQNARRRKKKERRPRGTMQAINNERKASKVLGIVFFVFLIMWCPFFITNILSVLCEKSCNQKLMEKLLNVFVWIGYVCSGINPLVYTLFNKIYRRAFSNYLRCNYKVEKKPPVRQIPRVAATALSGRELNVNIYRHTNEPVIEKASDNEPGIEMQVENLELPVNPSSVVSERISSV

human 5-HT2B receptor [2] = target: T1, human 5-HT2B receptor; experiment: Human 5-HT2B positive allosteric modulator (PAM) assay; format: cell-based; set-up: expressed in transfected cells; host or cells: HEK293; settings: for Emax (% of serotonin): PAM mode, agonist at EC20, relative to maximum response of serotonin
Protocol: Compound potency (EC50) and efficacy (Max response) against the human 5-HT2B receptor in stably transfected HEK293 cells were determined in a GPCR cell-based assay.
(§2) For Positive Allosteric Modulator determination, cells were pre-incubated with sample followed by EC20 addition. Intermediate dilution of sample stocks were performed to generate 5× samples in assay buffer. 5 μL of 5× samples were added to cells and incubated at 37° C. for 10 mins. 5 μL of agonist at 6×EC20 concentration was added and cells were incubated at 37° C. for 120 mins. Final assay vehicle concentration was 1%. The results are expressed as percent efficacy relative to the maximum response of the control ligand (serotonin) in Table 14.
Compound potency (EC50) and efficacy (Max response) against the human 5-HT2B receptor in stably transfected HEK293 cells was determined in a GPCR cell-based assay.
as §2, with “sample stocks was performed to” for “sample stocks were performed to”, “added and the cells were” for “added and cells were”, “120 mins. The final assay vehicle” for “120 mins. Final assay vehicle”, “in Table 64.” for “in Table 14.”

[3] = [3H]-LSD displacement, cell membrane, 37° C., 90 min, read-out: 5-HT2B, IC50
[4] = [3H]-LSD displacement, cell membrane, 37° C., 90 min, read-out: 5-HT2B, Ki
[5] = PAM mode: pre-incubation with sample, then agonist at EC20, HEK293 cells, read-out: EC50

T1 sequence (P41595 whole entry): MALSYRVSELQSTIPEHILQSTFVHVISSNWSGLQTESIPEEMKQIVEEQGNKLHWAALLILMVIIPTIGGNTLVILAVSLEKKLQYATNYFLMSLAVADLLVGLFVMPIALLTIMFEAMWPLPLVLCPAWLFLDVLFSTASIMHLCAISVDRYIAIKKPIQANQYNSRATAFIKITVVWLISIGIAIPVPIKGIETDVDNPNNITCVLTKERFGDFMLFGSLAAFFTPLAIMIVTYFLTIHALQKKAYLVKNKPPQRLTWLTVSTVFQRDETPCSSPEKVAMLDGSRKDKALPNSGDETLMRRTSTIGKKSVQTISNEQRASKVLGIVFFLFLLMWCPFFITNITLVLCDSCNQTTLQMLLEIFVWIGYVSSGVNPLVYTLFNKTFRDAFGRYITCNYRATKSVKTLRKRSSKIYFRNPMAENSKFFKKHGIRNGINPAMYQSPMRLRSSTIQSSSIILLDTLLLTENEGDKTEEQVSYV

| Structure (SMILES) | IC50 (human 5-HT2B receptor [1]; [3]) | Ki (human 5-HT2B receptor [1]; [4]) | Emax (% of serotonin) (human 5-HT2C receptor) | EC50 (human 5-HT2C receptor) | IC50 (human 5-HT2B receptor [1]) | Ki (human 5-HT2B receptor [1]) | EC50 (human 5-HT2B receptor [2]) | Emax (% of serotonin) (human 5-HT2B receptor [2]; HEK293 cells) | EC50 (human 5-HT2B receptor [2]; [5]) |
| --- | --- | --- | --- | --- | --- | --- | --- | --- | --- |
| [2H]C([2H])(c1c[nH]c2ccc(OCCCCCN3C(=O)C4CCCCC4C3=O)cc12)[C@H]1CCCN1C([2H])([2H])[2H] (mixture of isomers) [Rac (R) I-248] | 46.3 nM | 23.9 nM | – | – | – | – | – | – | – |
| CSc1ccc2[nH]cc(C[C@H]3CCCN3C)c2c1 [(R) I-1, (R)-3-((1-Methylpyrrolidin-2-yl)methyl)-5-(methylthio)-1H-indole] | – | – | 95.27 % of serotonin | 0.6 nM | 19 nM | 9.82 nM | > 10 µM | 0 % of serotonin | – |
| COCCN1CCC[C@@H]1Cc1c[nH]c2ccc(OC)cc12 [(R) I-98, (R)-5-Methoxy-3-((1-(2-methoxyethyl)pyrrolidin-2-yl)methyl)-1H-indole] | 45.6 nM | 23.6 nM | 95.23 % of serotonin | 6.51 nM | – | – | – | 0 % of serotonin | > 10 µM |
| [2H]C([2H])(c1c[nH]c2ccc(OCCCCN3C(=O)c4ccccc4C3=O)cc12)[C@H]1CCCN1C([2H])([2H])[2H] [(R) I-244, (R)-2-(4-((3-((1-(Methyl-d3)pyrrolidin-2-yl)methyl-d2)-1H-indol-5-yl)oxy)butyl)isoindoline-1,3-dione] | 21.4 nM | 11.1 nM | 87.27 % of serotonin | 2.53 nM | – | – | – | 26.89 % of serotonin | 0.0974 µM |
| [2H]C([2H])(c1c[nH]c2ccc(OCCCCCN3C(=O)c4ccccc4C3=O)cc12)[C@H]1CCCN1C([2H])([2H])[2H] [(R) I-245, (R)-2-(5-((3-((1-(Methyl-d3)pyrrolidin-2-yl)methyl-d2)-1H-indol-5-yl)oxy)pentyl)isoindoline-1,3-dione] | – | – | 83.29 % of serotonin | 42.3 nM | – | – | – | 0 % of serotonin | > 3.33 µM |
| [2H]C([2H])(c1c[nH]c2ccc(OCCCCCN3C(=O)[C@H]4CCCC[C@H]4C3=O)cc12)[C@H]1CCCN1C([2H])([2H])[2H] [Cis (R) I-248, 2-(5-((3-(((R)-1-(Methyl-d3)pyrrolidin-2-yl)methyl-d2)-1H-indol-5-yl)oxy)pentyl)hexahydro-1H-isoindole-1,3(2H)-dione] | – | – | 89.99 % of serotonin | 151 nM | – | – | – | 7.97 % of serotonin | > 10 µM |
